Usually IC50 stands for the concentration that inhibits the measured activity by half. A higher IC50 goes with a need for much substance.

The structures appear in SMILES notation.

The source of these data is patent publication US11447493B2 (Kinnate Biopharma Inc., priority 2018, dated 2022).

Test in all cases: Radiometric protein kinase assay (33PanQinase), Assay Condition A (thiol containing)
What all share (assay type): biochemical

For one assay, the target named is CDK7/CycH/MAT1 (Homo sapiens (Human), UniProt P50613). The conditions noted are these: thiol containing (1.2 mM DTT), ATP 3.0 μM. As for the experimental part: (§1) The IC50 profile of test compounds was determined using three protein kinases.
(§2) The compounds were provided as pre-weighed powders in vials. The compounds were dissolved to 1×10^−02M by adding DMSO. 100 μl of each of the resulting stock solutions were transferred into column 2 of four 96 well “master plates”.
(§3) Prior to testing, the 1×10^−02M stock solutions in column 2 of the master plates were subjected to a serial, semi-logarithmic dilution using 100% DMSO as a solvent. […] Column 1 and 7 were filled with 100% DMSO as controls. Subsequently, 2×10 μl from each well of the serial diluted copy plates were aliquoted with a 96 channel pipettor into two identical sets of “compound dilution plates”.
(§4) In the process, 90 μl H2O were added to each well of a set of compound dilution plates. To minimize potential precipitation, the H2O was added to each plate only a few minutes before the transfer of the compound solutions into the assay plates. Each plate was shaken thoroughly, resulting in a “compound dilution plate/10% DMSO”.
(§5) For the assays, 5 μl solution from each well of the compound dilution plates/10% DMSO were transferred into the assay plates. The final volume of the assay was 50 μl. All compounds were tested at 10 final assay concentrations in the range from 1×10^−04M to 3×10^−09M, in singlicate. The final DMSO concentration in the reaction cocktails was 1% in all cases.
(§6) All protein kinases were expressed in Sf9 insect cells or in E. coli as recombinant GST-fusion proteins or His-tagged proteins, either as full-length or enzymatically active fragments. All kinases were produced from human cDNAs and purified by either GSH-affinity chromatography or immobilized metal. Affinity tags were removed from a number of kinases during purification. The purity of the protein kinases was examined by SDS-PAGE/Coomassie staining, the identity was checked by mass spectroscopy.
(§7) A radiometric protein kinase assay (^33PanQinase® Activity Assay) was used for measuring the kinase activity of the three protein kinases. All kinase assays were performed in 96-well FlashPlates™ from PerkinElmer (Boston, Mass., USA) in a 50 μl reaction volume. The reaction cocktail was pipetted in four steps in the following order: • 20 μl of assay buffer (standard buffer) • 5 μl of ATP solution (in H2O) • 5 μl of test compound (in 10% DMSO) • 20 μl enzyme/substrate mix
(§8) The reaction cocktails were incubated at 30° C. for 60 minutes. The reaction was stopped with 50 μl of 2% (v/v) H3PO4, plates were aspirated and washed two times with 200 μl 0.9% (w/v) NaCl. Incorporation of ^33Pi was determined with a microplate scintillation counter (Microbeta, Wallac). All assays were performed with a BeckmanCoulter/SAGIAN™ Core System.
(§9) The median value of the counts in column 1 (n=8) of each assay plate was defined as “low control”. This value reflects unspecific binding of radioactivity to the plate in the absence of a protein kinase but in the presence of the substrate. The median value of the counts in column 7 of each assay plate (n=8) was taken as the “high control”, i.e. full activity in the absence of any inhibitor. The difference between high and low control was taken as 100% activity.
(§10) As part of the data evaluation the low control value from a particular plate was subtracted from the high control value as well as from all 80 “compound values” of the corresponding plate. The residual activity (in %) for each well of a particular plate was calculated by using the following formula: Res. Activity (%)=100×[(cpm of compound−low control)/(high control−low control)]
(§11) The residual activities for each concentration and the compound IC50 values were calculated using Quattro Workflow V3.1.1 (Quattro Research GmbH, Munich, Germany). […] The fitting method used was a least-squares fit.

The target in the next assay is CDK2/CycA2 (Homo sapiens (Human), UniProt P24941). The conditions noted are these: thiol containing (1.2 mM DTT), ATP 0.3 μM. As for the experimental part:
as §1, §2, §3, §4, §5, §6, §7, §8, §9, §10, §11

The next assay has as its target CDK12 wt/CycK (Homo sapiens (Human), UniProt Q9NYV4). The conditions noted are these: thiol containing (1.2 mM DTT), ATP 0.3 μM. On the procedure: as §1, §2, §3, §4, §5, §6, §7, §8, §9, §10, §11

Chain of CDK12 wt/CycK (Q9NYV4 whole entry): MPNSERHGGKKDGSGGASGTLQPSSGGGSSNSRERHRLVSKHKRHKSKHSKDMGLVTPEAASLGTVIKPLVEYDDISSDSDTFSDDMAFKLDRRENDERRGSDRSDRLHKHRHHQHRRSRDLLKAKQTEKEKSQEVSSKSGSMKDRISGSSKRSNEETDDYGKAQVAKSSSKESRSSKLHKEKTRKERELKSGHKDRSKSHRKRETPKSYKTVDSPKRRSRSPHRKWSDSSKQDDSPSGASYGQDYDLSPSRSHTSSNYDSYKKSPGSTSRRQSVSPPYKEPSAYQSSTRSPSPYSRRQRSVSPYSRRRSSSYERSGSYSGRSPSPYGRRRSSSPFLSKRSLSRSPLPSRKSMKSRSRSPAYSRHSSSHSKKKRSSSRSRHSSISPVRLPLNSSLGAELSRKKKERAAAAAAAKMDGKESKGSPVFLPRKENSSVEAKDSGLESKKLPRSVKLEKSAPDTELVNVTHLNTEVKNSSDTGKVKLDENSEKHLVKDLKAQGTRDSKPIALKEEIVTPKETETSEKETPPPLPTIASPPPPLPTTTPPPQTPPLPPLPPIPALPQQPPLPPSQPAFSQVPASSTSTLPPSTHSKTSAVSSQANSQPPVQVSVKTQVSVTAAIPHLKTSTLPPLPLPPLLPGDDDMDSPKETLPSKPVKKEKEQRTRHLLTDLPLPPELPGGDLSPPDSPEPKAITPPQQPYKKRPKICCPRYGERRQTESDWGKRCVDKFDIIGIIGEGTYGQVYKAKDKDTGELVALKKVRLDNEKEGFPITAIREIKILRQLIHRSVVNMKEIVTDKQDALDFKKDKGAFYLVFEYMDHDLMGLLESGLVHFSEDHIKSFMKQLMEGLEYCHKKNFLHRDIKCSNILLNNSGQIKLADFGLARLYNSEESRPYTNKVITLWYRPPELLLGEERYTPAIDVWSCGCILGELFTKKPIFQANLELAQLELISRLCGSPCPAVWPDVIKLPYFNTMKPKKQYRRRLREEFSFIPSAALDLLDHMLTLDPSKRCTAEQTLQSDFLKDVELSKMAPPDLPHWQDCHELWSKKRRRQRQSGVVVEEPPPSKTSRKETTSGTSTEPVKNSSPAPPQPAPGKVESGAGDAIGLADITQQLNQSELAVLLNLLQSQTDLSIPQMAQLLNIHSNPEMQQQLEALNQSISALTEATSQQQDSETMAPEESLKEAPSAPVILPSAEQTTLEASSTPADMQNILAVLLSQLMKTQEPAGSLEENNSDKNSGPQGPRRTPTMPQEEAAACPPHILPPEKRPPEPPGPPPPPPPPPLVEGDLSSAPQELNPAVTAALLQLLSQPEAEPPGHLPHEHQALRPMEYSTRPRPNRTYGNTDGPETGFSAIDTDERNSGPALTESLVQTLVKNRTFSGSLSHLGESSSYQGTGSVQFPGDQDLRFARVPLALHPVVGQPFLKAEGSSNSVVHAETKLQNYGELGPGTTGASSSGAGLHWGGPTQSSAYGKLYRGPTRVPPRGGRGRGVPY
Chain of CDK12 wt/CycK (O75909 whole entry partner): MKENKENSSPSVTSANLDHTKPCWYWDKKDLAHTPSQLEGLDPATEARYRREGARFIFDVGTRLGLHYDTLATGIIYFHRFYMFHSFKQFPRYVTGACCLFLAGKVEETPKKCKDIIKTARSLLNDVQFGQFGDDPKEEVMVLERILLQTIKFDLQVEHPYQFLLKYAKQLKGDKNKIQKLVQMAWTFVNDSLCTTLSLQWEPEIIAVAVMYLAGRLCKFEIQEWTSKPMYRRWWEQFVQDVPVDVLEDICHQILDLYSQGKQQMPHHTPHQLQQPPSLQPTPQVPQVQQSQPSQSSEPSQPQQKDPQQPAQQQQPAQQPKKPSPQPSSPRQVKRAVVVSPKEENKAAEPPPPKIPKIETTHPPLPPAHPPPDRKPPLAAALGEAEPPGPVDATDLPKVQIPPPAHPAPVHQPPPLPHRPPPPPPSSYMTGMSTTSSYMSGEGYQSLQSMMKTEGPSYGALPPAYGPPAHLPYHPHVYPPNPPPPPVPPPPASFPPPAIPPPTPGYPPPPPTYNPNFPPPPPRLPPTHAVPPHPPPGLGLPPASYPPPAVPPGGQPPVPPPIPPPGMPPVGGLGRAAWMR
Chain of CDK7/CycH/MAT1 (P50613 whole entry): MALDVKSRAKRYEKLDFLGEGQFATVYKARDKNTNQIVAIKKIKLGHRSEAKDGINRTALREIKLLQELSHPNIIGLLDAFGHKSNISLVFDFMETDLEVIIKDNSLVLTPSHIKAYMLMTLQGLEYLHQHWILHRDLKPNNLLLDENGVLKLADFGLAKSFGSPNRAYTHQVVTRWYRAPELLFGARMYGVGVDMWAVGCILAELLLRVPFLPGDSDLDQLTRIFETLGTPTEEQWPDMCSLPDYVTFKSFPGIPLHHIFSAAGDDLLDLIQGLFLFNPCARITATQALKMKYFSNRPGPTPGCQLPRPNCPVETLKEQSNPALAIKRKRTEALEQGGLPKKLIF
Chain of CDK7/CycH/MAT1 (P51946 whole entry partner): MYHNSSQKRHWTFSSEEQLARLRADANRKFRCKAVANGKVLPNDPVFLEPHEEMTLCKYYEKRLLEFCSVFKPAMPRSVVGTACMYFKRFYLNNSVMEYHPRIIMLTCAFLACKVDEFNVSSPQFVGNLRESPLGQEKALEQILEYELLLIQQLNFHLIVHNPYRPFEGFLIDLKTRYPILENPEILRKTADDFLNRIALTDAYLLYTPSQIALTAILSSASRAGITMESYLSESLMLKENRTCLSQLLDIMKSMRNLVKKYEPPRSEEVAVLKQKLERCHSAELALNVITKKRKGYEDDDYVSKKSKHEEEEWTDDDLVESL
Chain of CDK7/CycH/MAT1 (P51948 whole entry partner): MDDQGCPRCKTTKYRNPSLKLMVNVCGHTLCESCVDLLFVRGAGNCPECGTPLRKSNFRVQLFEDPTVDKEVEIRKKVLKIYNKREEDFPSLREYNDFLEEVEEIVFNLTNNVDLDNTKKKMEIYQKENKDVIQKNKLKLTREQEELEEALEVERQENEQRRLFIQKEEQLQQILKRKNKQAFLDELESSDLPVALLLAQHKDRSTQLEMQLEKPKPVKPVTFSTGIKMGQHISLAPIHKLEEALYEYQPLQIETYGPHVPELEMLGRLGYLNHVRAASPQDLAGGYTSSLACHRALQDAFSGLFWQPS

With `CCC(=O)Nc1ccc(C(=O)N2CC[C@@H](Nc3ncc4cc(Cl)ccc4n3)C2)cc1` [Example 47, (R)—N-(4-(3-((6-chloroquinazolin-2-yl)amino)pyrrolidine-1-carbonyl)phenyl)propionamide], the IC50 against CDK7/CycH/MAT1 fell in the range of 1000 to 10000 nM; on CDK2/CycA2, 1000 to 10000 nM; against CDK12 wt/CycK it was 100 to 1000 nM.

Turning to `CCC(=O)Nc1ccc(C(=O)N2CC[C@@H](Nc3ncc4cc(OC)ccc4n3)C2)cc1` [Example 48, (R)—N-(4-(3-((6-methoxyquinazolin-2-yl)amino)pyrrolidine-1-carbonyl)phenyl)propionamide], the IC50 against CDK7/CycH/MAT1 was in the range of 30000 to 100000 nM; on CDK2/CycA2, 10000 to 30000 nM; against CDK12 wt/CycK, 1000 to 10000 nM.

Take `CCC(=O)Nc1ccc(C(=O)N2CC[C@@H](Nc3ncc4cc(C)ccc4n3)C2)cc1` [Example 49, (R)—N-(4-(3-((6-methylquinazolin-2-yl)amino)pyrrolidine-1-carbonyl)phenyl)propionamide]: the IC50 against CDK7/CycH/MAT1, on CDK2/CycA2 and against CDK12 wt/CycK was 1000 to 10000 nM each time.

Regarding `CCC(=O)Nc1ccc(C(=O)N2CC[C@@H](Nc3ncc4ccncc4n3)C2)cc1` [Example 50, (R)—N-(4-(3-(pyrido[3,4-d]pyrimidin-2-ylamino)pyrrolidine-1-carbonyl)phenyl)propionamide], the IC50 at CDK7/CycH/MAT1 was in the range of 1000 to 10000 nM; on CDK2/CycA2, 1000 to 10000 nM; against CDK12 wt/CycK it was 100 to 1000 nM.

For the molecule `CCC(=O)Nc1ccc(C(=O)N2CC[C@@H](Nc3ncc4ccc(OC)cc4n3)C2)cc1` [Example 51, (R)—N-(4-(3-((7-methoxyquinazolin-2-yl)amino)pyrrolidine-1-carbonyl)phenyl)propionamide], the IC50 at CDK7/CycH/MAT1, at CDK2/CycA2 and at CDK12 wt/CycK was 100 to 1000 nM in each case.

`CCC(=O)Nc1ccc(C(=O)N2CC[C@@H](Nc3ncc4ccc(S(C)(=O)=O)cc4n3)C2)cc1` [Example 52, (R)—N-(4-(3-((7-(methylsulfonyl)quinazolin-2-yl)amino)pyrrolidine-1-carbonyl)phenyl)propionamide]: the IC50 lay in the range of 1000 to 10000 nM against CDK7/CycH/MAT1, 100 to 1000 nM against CDK2/CycA2 and 100 to 1000 nM at CDK12 wt/CycK.

Consider `CCC(=O)Nc1ccc(C(=O)N2CC[C@@H](Nc3ncc4ccc(Cl)cc4n3)C2)cc1` [Example 53, (R)—N-(4-(3-((7-chloroquinazolin-2-yl)amino)pyrrolidine-1-carbonyl)phenyl)propionamide], for which the IC50 at CDK7/CycH/MAT1 is 1000 to 10000 nM; on CDK2/CycA2, 100 to 1000 nM; at CDK12 wt/CycK, 100 to 1000 nM.

For `CCC(=O)Nc1ccc(C(=O)N2CC[C@@H](Nc3ncc4ccc(F)cc4n3)C2)cc1` [Example 54, (R)—N-(4-(3-((7-fluoroquinazolin-2-yl)amino)pyrrolidine-1-carbonyl)phenyl)propionamide], the figures for the IC50 at CDK7/CycH/MAT1, on CDK2/CycA2 and on CDK12 wt/CycK were 1000 to 10000 nM, 1000 to 10000 nM and 100 to 1000 nM, respectively.

In the case of `CCC(=O)Nc1ccc(C(=O)N2CC[C@@H](Nc3ncc4ccc(C#N)cc4n3)C2)cc1` [Example 55, (R)—N-(4-(3-((7-cyanoquinazolin-2-yl)amino)pyrrolidine-1-carbonyl)phenyl)propionamide], the half-maximal inhibitory concentration (IC50) against CDK7/CycH/MAT1 was 1000 to 10000 nM; against CDK2/CycA2, 100 to 1000 nM; on CDK12 wt/CycK it was 100 to 1000 nM.

Take `CCC(=O)Nc1ccc(C(=O)N2CC[C@@H](Nc3ncc4ccc(C(=O)O)cc4n3)C2)cc1` [Example 56, (R)-2-((1-(4-propionamidobenzoyl)pyrrolidin-3-yl)amino)quinazoline-7-carboxylic Acid]: the results for the IC50 against CDK7/CycH/MAT1, against CDK2/CycA2 and against CDK12 wt/CycK were 100 to 1000 nM, at most 100 nM and at most 100 nM, respectively.

With `CCC(=O)Nc1ccc(C(=O)N2CC[C@@H](Nc3ncc4ccc(C(N)=O)cc4n3)C2)cc1` [Example 57, (R)-2-((1-(4-propionamidobenzoyl)pyrrolidin-3-yl)amino)quinazoline-7-carboxamide], the IC50 at CDK7/CycH/MAT1, on CDK2/CycA2 and against CDK12 wt/CycK was at most 100 nM in each case.
